The values below come from patent publication US10000558B2, “Use of annexin A3 as a diagnostic and prognostic biomarker and therapeutic target for treating hepatocellular carcinoma” (The University of Hong Kong, priority 2013, dated 2018).

Where “and” joins values, the source holds several entries; their conditions need not be identical. Equal entries are not always repeated.

One experiment concerns Huh7 cells. Put plainly: Apoptosis analysis by Annexin V-PI flow cytometry. The class given is cell-based, human. The note with it: for Cisplatin-induced apoptosis: cisplatin 5 μg/ml for 48 hrs; for STS-induced apoptosis: STS 1 μg/ml for 6 hrs; for 5-fluorouracil-induced apoptosis: 5-fluorouracil 150 µg/ml for 48 hrs. As to the method: Cells were treated with cisplatin (5 μg/ml) or 5-fluorouracil ([…]) for 48 hrs, apoptosis inducer staurosporin (STS, 1 μg/ml) for 6 hrs. Cells would then be subsequently harvested and stained in binding buffer, propidium iodide (PI) and FITC-conjugated Annexin V as provided by the Annexin-V FLUOS Staining Kit (Roche Diagnostics) according to manufacturer's instructions. Analysis was determined by a FACS Canto II (BD Biosciences) and FlowJo software (Tree Star, Inc.).
The effect of ANXA3 on resistance to apoptosis and chemotherapy was investigated by Annexin V-PI staining followed by flow cytometry analysis. To investigate whether ANXA3 expression in HCC confers enhanced resistance to chemotherapy and apoptosis, Huh7 cells with or without ANXA3 repressed were treated with the apoptosis inducer staurosporin (STS) or chemotherapeutic reagents, 5-fluorouracil (5-FU) or cisplatin, in vitro and analyzed for apoptotic/necrotic cells by flow cytometry. […] Upon stable ANXA3 knockdown in Huh7 and PLC8024 HCC cells, HCC cells became less resistant to the apoptosis inducer, staurosporin (STS) and chemotherapy, 5-fluorouracil and cisplatin, resulting in a significant increase in apoptotic/necrotic cells.

The test system of experiment [1] is HCC Huh7 cells or HCC primary cells. Put plainly: Subcutaneous HCC xenograft treatment in NOD-SCID mice. Type of experiment: in vivo. As for the experimental part:
Immunodeficient NOD-SCID mice transplanted subcutaneously with HCC Huh7 cells or HCC primary cells were injected with PBS, mouse IgG control ANXA3 mAb, cisplatin or a combination of ANXA3 mAb and cisplatin over a period of 3 weeks (FIGS. 4A, B and C).

Setting [2] is: Huh7 ANXA3 repressed clones (two clones, values not assigned).

For `N.N.[Cl][Pt][Cl]` [cisplatin, reference compound], the Cisplatin-induced apoptosis in the experiment with Huh7 cells (setting [2]) is 38.4% and 41.1%; in the experiment with Huh7 cells (Huh7 control (NTC) cells), 26.73%. Moreover, the “tumor formation after serial transplantation of residual tumor into secondary mouse recipients” value in experiment [1] (FIG. 4D) is “resulted in tumor formation and recurrence”. The “tumor growth / tumor volume” value in experiment [1] (NOD-SCID mice, subcutaneous transplant, injections over 3 weeks, FIG. 4A, B) was “marked reduction in tumor volume”. Also, the “CD133+ liver CSC subset in tumor” value in experiment [1] (flow cytometric analysis of residual tumors, FIG. 4C) is recorded as “enriched”.

Take `CN[C@@H]1C[C@H]2O[C@@](C)([C@@H]1OC)n1c3ccccc3c3c4c(c5c6ccccc6n2c5c31)C(=O)NC4` [STS, staurosporin]: the STS-induced apoptosis in the experiment on Huh7 cells (setting [2]) is 53.58% and 52.3%; in the experiment with Huh7 cells (Huh7 control (NTC) cells), 43.72%.

On to `O=c1[nH]cc(F)c(=O)[nH]1` [5-fluorouracil], for which the 5-fluorouracil-induced apoptosis is 39.4% and 55.51% in the experiment with Huh7 cells (setting [2]); 30.1% in the experiment on Huh7 cells (Huh7 control (NTC) cells).
